In patent US20150175585A1, “FUSED QUINONIC COMPOUNDS” (CENTRO ATLANTICO DEL MEDICAMENTO S.A (CEAMED, S.A.), priority 2012, published 2015):

Columns and labels:
[1] = system: STAT5 transcription (pSPI-GLE1-luc) in HEK-GHR cells; assay: HEK-GHR STAT5 transcription assay (luciferase reporter, rhGH stimulated); type: cell-based, human; conditions: Homo sapiens, compound 45 minutes before 50 nM rhGH, six hours, read-out: Activity (IC50, reduction of luciferase activity)
Text: Plasmids: The full-length GHR was subcloned into pcDNA1/ampicillin (Invitrogen) as described previously (Ross R J, Esposito N, Shen X Y, et al., Mol Endocrinol 1997, 11:265-73). The pSPI-GLE1 (serine protease inhibitor 2.1 GAS-like element 1)-luc reporter construct was generated by subcloning the Stat5-binding element from serine protease inhibitor gene together with a minimal thymidine kinase promoter into the pGL2 plasmid (Promega), which contains the firefly luciferase cDNA (Wood T J, Sliva D, Lobie P E, et al. J Biol Chem 1995, 270:9448-53).
Cell culture: HEK-GHR cell line was maintained in Dulbecco's Modified Eagle Medium (DMEM)/F12 supplemented with 10% fetal bovine serum (FBS) and 50 U/ml penicillin/50 U/ml streptomycin. The cells were maintained in a humidified incubator with 5% CO2 at 37° C. Cell culture reagents were obtained from PAA laboratories. The HEK-GHR cell line is a stable clone generated and kindly donated by Prof. Richard Ross (Clinical Sciences, Northern General Hospital, Sheffield, UK). Briefly, HEK-GHR cell line was generated in HEK 293 cells (human kidney embryonal cell line) by transfection with the calcium phosphate procedure of the GHR plasmid with pcDNA3/Neo (Invitrogen). Selection was made using G418 (400 ug/ml, Sigma) (Maamra M, Finidori J, Von Laue S, et al., J Biol Chem 1999, 274(21):14791-8).
Luciferase reporter assay: Transcription assays were performed in HEK-GHR. The HEK-GHR cells were co-transfected with Stat5 luciferase (pSPI-GLE1-luc) reporter vector together with a plasmid constitutively expressing beta-galactosidase by using Metafectene Pro as described by the manufacturer (Biontex Laboratories GmbH, Munich, Germany). Following transfection, HEK-GHR cells were serum-starved for 20 h. Cells were then treated with vehicle (0.1% DMSO) or the indicated compound for 45 minutes prior to the addition of 50 nM recombinant human Growth Hormone (rhGH) (Norditropin, Novo Nordisk) to the medium. Six hours following rhGH addition, cells were harvested with Passive Lysis Buffer (Promega), and levels of luciferase were measured using Luciferase Assay System as described by the manufacturer (Promega). The Galacto-Light Plus System (Applied Biosystems) was used to measure beta-galactosidase activity.
Statistical analysis. The concentration of drug that provokes 50% reduction of luciferase activity (IC50) was determined by using non-linear regression analysis and data were fitted to a log concentration vs normalized response curve in GraphPad software v5 (San Diego, Calif.).

JAK2 = JAK2 phosphorylation western blot assay; type: cell-based, human; conditions: 10 microM, HEL or K562 cells (table does not say which)
Method: The Human Erythroleukemia cell line HEL and the human Chronic Myeloid Leukemia cell line K562 were cultured in RPM I 1640 medium containing 10% fetal bovine serum (FBS) and 50 U/ml penicillin/50 U/ml streptomycin at 37° C. in a 5% CO2 humidified atmosphere to a density of 300.000 viable cells/mL in presence of WP1066 (positive control of phosphorylation inhibition) (Verstovsek et al., 2008) or CM-363 at concentrations of 1, 5 and 10 μM. Cell culture reagents were all obtained from BioWhittaker® (Lonza, Verniers, Belgium). Cell growth and viability was determined by propidium iodide (fluorescent dye) exclusion method using the Accuchip 4× Counting Kit and the ADAM automatic cell counter (Digital-Bio, NanoEntek, Ic., Washington St, Mass., USA).As a control of unspecific phosphorylation, some cells in each experiment were exposed to vehicle (negative control of phosphorylation inhibition) (0.1% DMSO).
For total protein extraction, cells were scraped with RIPA 1× lysis buffer (25 mM Tris-HCl pH 7.6, 150 mM NaCl, 1% NP-40, 1% sodium deoxycholate, 0.1% SDS, no. 89900, Thermo Scientific, Rockford, Ill., USA) supplemented with 1× protease and 1× phosphatase inhibitor cocktails (100× Halt™ Protease Inhibitor Cocktail, no. 87786 and 100× Halt Phosphatase Inhibitor Cocktail, no. 78420, both from Thermo Scientific, Rockford, Ill., USA). An aliquot of each extract was preserved for protein quantification by bicinchoninic acid assay (Pierce® BCA Protein Assay Kit, no. 23225, Thermo Scientific, Rockford, Ill., USA).
Proteins were solubilized in sample buffer containing 0.0625 M Tris-HCl, pH 6.8, 2.3% (wt/vol) SDS, 10% (vol/vol) glycerol, 5% (vol/vol) f3-mercaptoethanol, and 0.001% (wt/vol) bromophenol blue and boiled at 95° C. for 5 min. Equal amounts (50 μg) of each sample were electrophoresed on 8-10% sodium dodecyl sulfate-polyacrylamide gel electrophoresis (SDS-PAGE) and transferred to nitrocellulose membranes (iBlot® Gel Transfer Stacks, Nitrocellulose, no. IB4010-02, Invitrogen, Barcelona, Spain) as described previously (Fernandez, L, et al., Endocrinology, 13, 1815-1824, 1998; B. Guerra et al., J. Neurochem, 91, 99-109, 2004; B. Guerra et al., J. Appl. Physiol., 102, 1786-1792, 2007; B. Guerra et al., J. Appl. Physiol., 111, 715-725, 2011). The nitrocellulose membranes were then removed from the iBlot® Dry GelTransfer Device (no. IB1001EU, Invitrogen, Barcelona, Spain) and placed in a Ponceau S staining solution (0.5% Ponceau S and 1% glacial acetic acid in water) to verify equal loading of protein in the control and treated samples. After the membranes were stained for 5 min, they were rinsed for 2 min and examined. Equal loading of protein was verified, and the membranes were rinsed for an additional 10 min and immunoscreened. Membranes were blocked with 5% blotting grade blocker nonfat dry milk in Tris Buffered Saline with 0.05% Tween 20 (TBST; blotto-blocking buffer) for at least […]) at room temperature. They were washed thrice in TBS with 0.1% Tween 20 (TBST-0.1). Next, the membranes were incubated over night at 4° C. with the appropriate anti-phospho-antibodies (described below) all diluted (1:1000) in 1% bovine serum albumin (BSA)-1% blotto in TBST (BSA-blotto blocking buffer). […] Membranes were stripped of bound antibodies by incubation in stripping buffer (Restore™ Western Blot Stripping Buffer, no. 21059, Thermo Scientific, Rockford, Ill., USA) at room temperature for 30 min with agitation. Membranes were washed for 3×10 min in TBST-0.1, blocked with blotto-blocking buffer for at least 1 h and re-probed with the corresponding anti-total kinase antibodies (described below) all diluted (1:1000) in blotto-blocking buffer. […]

N#Cc1ccc(C2C3=C(CCCC3=O)OC3=C2C(=O)c2ccccc2C3=O)cc1 (centres unmarked) [Compound 4, 4-(1,6,11-trioxo-2,3,4,6,11,12-hexahydro-1H-benzo[b]xanthen-12-yl)benzonitrile] was tested, and the IC50 [1] was under 1000 nM and the “Activity (inhibition of JAK2 phosphorylation)” value (JAK2) was “++ (++represents an inhibition at 10 microM > 50%)”.
